According to PubChem BioAssay AID1918999 (Molecular Pharmacology Branch, DTP, NCI, 2023):

System: 556581-035-R-J1-PDC complex spheroid growth
Experiment: Anticancer human tumor 556581-035-R-J1-PDC patient-derived ovarian carcinoma cell line growth inhibition [AhR]
Details: for IC50: curve of first compound; for viability, T/C: stronger effect = lower value; active = viability on the fitted dose curve at most 10% of control; inactive = the rest
Outline: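 Complex tumor spheroids co-cultured with HUVEC and human MSC stroma; AhR antagonists tested in combination with standard-of-care and investigational agents. Top concentration at or near clinical Cmax (else 10 microM), half-log dilutions; growth expressed as percent test/control.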

[1] = second compound 0.1 µM, first compound 0.00949 µM
[2] = second compound 0.1 µM, first compound 0.03 µM
[3] = second compound 0.1 µM, first compound 0.0949 µM
[4] = second compound 0.1 µM, first compound 0.3 µM
[5] = second compound 0.1 µM, first compound 0.949 µM
[6] = second compound 0.1 µM, first compound 3 µM
[7] = second compound 0.316 µM, first compound 0.00949 µM
[8] = second compound 0.316 µM, first compound 0.03 µM
[9] = second compound 0.316 µM, first compound 0.0949 µM
[10] = second compound 0.316 µM, first compound 0.3 µM
[11] = second compound 0.316 µM, first compound 0.949 µM
[12] = second compound 0.316 µM, first compound 3 µM
[13] = second compound 1 µM, first compound 0.00949 µM
[14] = second compound 1 µM, first compound 0.03 µM
[15] = second compound 1 µM, first compound 0.0949 µM
[16] = second compound 1 µM, first compound 0.3 µM
[17] = second compound 1 µM, first compound 0.949 µM
[18] = second compound 1 µM, first compound 3 µM
[19] = second compound 3.16 µM, first compound 0.00949 µM
[20] = second compound 3.16 µM, first compound 0.03 µM
[21] = second compound 3.16 µM, first compound 0.0949 µM
[22] = second compound 3.16 µM, first compound 0.3 µM
[23] = second compound 3.16 µM, first compound 0.949 µM
[24] = second compound 3.16 µM, first compound 3 µM
[25] = second compound 10 µM, first compound 0.00949 µM
[26] = second compound 10 µM, first compound 0.03 µM
[27] = second compound 10 µM, first compound 0.0949 µM
[28] = second compound 10 µM, first compound 0.3 µM
[29] = second compound 10 µM, first compound 0.949 µM
[30] = second compound 10 µM, first compound 3 µM
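Throughout, for viability, T/C: compound exposure lasted 7 days; 100% = DMSO vehicle control growth.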

CC1COCCN1c1cc(C2(S(C)(=N)=O)CC2)nc(-c2ccnc3[nH]ccc23)n1 (stereo not given) + CC(CO)NC(=O)c1cc(-c2ccc(Cl)cc2)nn(-c2cnn(C)c2)c1=O
inactive: viability, T/C (second compound 0.1 µM, first compound 0.0316 µM) 116% | viability, T/C (second compound 0.1 µM, first compound 0.1 µM) 113% | viability, T/C (second compound 0.1 µM, first compound 0.316 µM) 101% | viability, T/C (second compound 0.1 µM, first compound 1 µM) 92% | viability, T/C (second compound 0.1 µM, first compound 3.16 µM) 86.2% | viability, T/C (second compound 0.1 µM, first compound 10 µM) 69.1% | viability, T/C (second compound 0.316 µM, first compound 0.0316 µM) 97.1% | viability, T/C (second compound 0.316 µM, first compound 0.1 µM) 113% | viability, T/C (second compound 0.316 µM, first compound 0.316 µM) 105% | viability, T/C (second compound 0.316 µM, first compound 1 µM) 90.1% | viability, T/C (second compound 0.316 µM, first compound 3.16 µM) 81.4% | viability, T/C (second compound 0.316 µM, first compound 10 µM) 70.2% | viability, T/C (second compound 1 µM, first compound 0.0316 µM) 111% | viability, T/C (second compound 1 µM, first compound 0.1 µM) 105% | viability, T/C (second compound 1 µM, first compound 0.316 µM) 116% | viability, T/C (second compound 1 µM, first compound 1 µM) 98.2% | viability, T/C (second compound 1 µM, first compound 3.16 µM) 78.2% | viability, T/C (second compound 1 µM, first compound 10 µM) 67.6% | viability, T/C (second compound 3.16 µM, first compound 0.0316 µM) 105% | viability, T/C (second compound 3.16 µM, first compound 0.1 µM) 104% | viability, T/C (second compound 3.16 µM, first compound 0.316 µM) 107% | viability, T/C (second compound 3.16 µM, first compound 1 µM) 89.4% | viability, T/C (second compound 3.16 µM, first compound 3.16 µM) 83.5% | viability, T/C (second compound 3.16 µM, first compound 10 µM) 71.8% | viability, T/C (second compound 10 µM, first compound 0.0316 µM) 118% | viability, T/C (second compound 10 µM, first compound 0.1 µM) 119% | viability, T/C (second compound 10 µM, first compound 0.316 µM) 110% | viability, T/C (second compound 10 µM, first compound 1 µM) 101% | viability, T/C (second compound 10 µM, first compound 3.16 µM) 81.2% | viability, T/C (second compound 10 µM, first compound 10 µM) 72.5%
> 10 µM: IC50 (second compound 0.1 µM) | IC50 (second compound 0.316 µM) | IC50 (second compound 1 µM) | IC50 (second compound 3.16 µM) | IC50 (second compound 10 µM)

CCN(c1cc(-c2ccc(CN3CCOCC3)cc2)cc(C(=O)NCc2c(C)cc(C)[nH]c2=O)c1C)C1CCOCC1 + CC(CO)NC(=O)c1cc(-c2ccc(Cl)cc2)nn(-c2cnn(C)c2)c1=O
inactive: viability, T/C [1] 103% | viability, T/C [2] 102% | viability, T/C [3] 94.7% | viability, T/C [4] 94.7% | viability, T/C [5] 102% | viability, T/C [6] 91.8% | viability, T/C [7] 102% | viability, T/C [8] 91.2% | viability, T/C [9] 96.5% | viability, T/C [10] 92.2% | viability, T/C [11] 108% | viability, T/C [12] 91.8% | viability, T/C [13] 106% | viability, T/C [14] 106% | viability, T/C [15] 117% | viability, T/C [16] 105% | viability, T/C [17] 87.8% | viability, T/C [18] 106% | viability, T/C [19] 106% | viability, T/C [20] 99.7% | viability, T/C [21] 90.7% | viability, T/C [22] 95% | viability, T/C [23] 100% | viability, T/C [24] 87.9% | viability, T/C [25] 94.9% | viability, T/C [26] 101% | viability, T/C [27] 113% | viability, T/C [28] 94.6% | viability, T/C [29] 89.8% | viability, T/C [30] 94.8%
> 3 µM: IC50 (second compound 0.1 µM) | IC50 (second compound 0.316 µM) | IC50 (second compound 1 µM) | IC50 (second compound 3.16 µM) | IC50 (second compound 10 µM)

Nc1ncn(C2CC(O)C(CO)S2)c(=O)n1 (stereo not given) + CC(CO)NC(=O)c1cc(-c2ccc(Cl)cc2)nn(-c2cnn(C)c2)c1=O
inactive: viability, T/C (second compound 0.1 µM, first compound 0.000949 µM) 122% | viability, T/C (second compound 0.1 µM, first compound 0.003 µM) 117% | viability, T/C [1] 106% | viability, T/C [2] 115% | viability, T/C [3] 109% | viability, T/C [4] 73.3% | viability, T/C (second compound 0.316 µM, first compound 0.000949 µM) 112% | viability, T/C (second compound 0.316 µM, first compound 0.003 µM) 106% | viability, T/C [7] 116% | viability, T/C [8] 111% | viability, T/C [9] 100% | viability, T/C [10] 69.9% | viability, T/C (second compound 1 µM, first compound 0.000949 µM) 114% | viability, T/C (second compound 1 µM, first compound 0.003 µM) 131% | viability, T/C [13] 126% | viability, T/C [14] 121% | viability, T/C [15] 108% | viability, T/C [16] 80.2% | viability, T/C (second compound 3.16 µM, first compound 0.000949 µM) 123% | viability, T/C (second compound 3.16 µM, first compound 0.003 µM) 128% | viability, T/C [19] 125% | viability, T/C [20] 109% | viability, T/C [21] 97.1% | viability, T/C [22] 80.8% | viability, T/C (second compound 10 µM, first compound 0.000949 µM) 122% | viability, T/C (second compound 10 µM, first compound 0.003 µM) 111% | viability, T/C [25] 111% | viability, T/C [26] 125% | viability, T/C [27] 106% | viability, T/C [28] 84%
> 0.3 µM: IC50 (second compound 0.1 µM) | IC50 (second compound 0.316 µM) | IC50 (second compound 1 µM) | IC50 (second compound 3.16 µM) | IC50 (second compound 10 µM)

O=C(C=Cn1cnc(-c2cc(C(F)(F)F)cc(C(F)(F)F)c2)n1)NNc1cnccn1 + CC(CO)NC(=O)c1cc(-c2ccc(Cl)cc2)nn(-c2cnn(C)c2)c1=O
> 3 µM: IC50 (second compound 0.1 µM) | IC50 (second compound 0.316 µM) | IC50 (second compound 1 µM) | IC50 (second compound 3.16 µM) | IC50 (second compound 10 µM)
inactive: viability, T/C [1] 84% | viability, T/C [2] 84.2% | viability, T/C [3] 87.6% | viability, T/C [4] 69.3% | viability, T/C [5] 66.9% | viability, T/C [6] 62.5% | viability, T/C [7] 87.3% | viability, T/C [8] 93% | viability, T/C [9] 81% | viability, T/C [10] 76% | viability, T/C [11] 71.2% | viability, T/C [12] 66% | viability, T/C [13] 88.7% | viability, T/C [14] 103% | viability, T/C [15] 84% | viability, T/C [16] 73.8% | viability, T/C [17] 68.2% | viability, T/C [18] 65.8% | viability, T/C [19] 98.2% | viability, T/C [20] 81.4% | viability, T/C [21] 80.5% | viability, T/C [22] 70% | viability, T/C [23] 62.7% | viability, T/C [24] 63% | viability, T/C [25] 93.1% | viability, T/C [26] 80% | viability, T/C [27] 75.9% | viability, T/C [28] 77.9% | viability, T/C [29] 72.7% | viability, T/C [30] 72.7%
